Reference: patent publication US8952181B2, “Organic semiconductive material precursor containing dithienobenzodithiophene derivative, ink, insulating member, charge-transporting member, and organic electronic device” (Ricoh Company, Ltd., priority 2010, dated 2015)

Experiments:
[1] = Solubility in organic solvents; type: physicochemical
Experimental: The solubility test of Example Compound 1-2 of Example 1 was performed by dissolving Example Compound 1-2 respectively in THF, chloroform, toluene, xylene, mesitylene, diethyl ether, dichloromethane, and ethanol. Example Compound 1-2 was not dissolved in any of the above-described solvents, and cannot form a film by various printing methods.

[2] = TG-DTA thermal analysis (elimination of X-Y on heating); type: physicochemical; conditions: temperature increase rate 5° C./min
Experimental: A TG-DTA measurement with respect to Example Compound 1 was performed using TG/DTA200 (manufactured by Seiko Instruments is Inc.). […] This was identical with the melting point of the following Example Compound 1-2 described in Japanese Patent Application Laid-Open (JP-A) No. 2011-44686.

[3] = solvent such as THF, toluene, chloroform, xylene, diethyl ether, or dichloromethane

Row | mass reduction, found value [2] [%] | solubility in solvent [1, 3] | Compound | further results
1 |  |  | CSC(=S)OC(Cc1ccc(C)cc1)c1cc2sc3cc4c(cc3c2s1)sc1cc(C(Cc2ccc(C)cc2)OC(=S)SC)sc14 (centres unmarked) [Example Compound 23] | solubility in solvent ([1]; solvent such as THF, toluene, chloroform, xylene, or dichloromethane): easily dissolved
2 | 29.7 | easily dissolved | CC(C)(C)C(=O)OC(Cc1ccccc1)c1cc2sc3cc4c(cc3c2s1)sc1cc(C(Cc2ccccc2)OC(=O)C(C)(C)C)sc14 (centres unmarked) [Example Compound 1] | 
3 |  |  | C(=C\c1cc2sc3cc4c(cc3c2s1)sc1cc(/C=C/c2ccccc2)sc14)/c1ccccc1 [Example Compound 1-2] | solubility test ([1]; THF, chloroform, toluene, xylene, mesitylene, diethyl ether, dichloromethane, and ethanol): not dissolved
4 | 15.1 |  | CCCCCCc1ccc(CC(OC(C)=O)c2cc3sc4cc5c(cc4c3s2)sc2cc(C(Cc3ccc(CCCCCC)cc3)OC(C)=O)sc25)cc1 (centres unmarked) [Example Compound 6] | 
5 | 34.3 | easily dissolved | O=C(CCC(F)(F)F)OC(Cc1ccccc1)c1cc2sc3cc4c(cc3c2s1)sc1cc(C(Cc2ccccc2)OC(=O)CCC(F)(F)F)sc14 (centres unmarked) [Example Compound 15] | 
6 | 35.5 | easily dissolved | CCOC(=O)CC(=O)OC(Cc1ccccc1)c1cc2sc3cc4c(cc3c2s1)sc1cc(C(Cc2ccccc2)OC(=O)CC(=O)OCC)sc14 (centres unmarked) [Example Compound 13] | 
7 | 30.0 |  | CCCCCC(=O)OC(Cc1ccc(C)cc1)c1cc2sc3cc4c(cc3c2s1)sc1cc(C(Cc2ccc(C)cc2)OC(=O)CCCCC)sc14 (centres unmarked) [Example Compound 4] | 
8 | 24.2 | easily dissolved | CCCCCC(=O)OC(Cc1ccc(-c2ccc(C)cc2)cc1)c1cc2sc3cc4c(cc3c2s1)sc1cc(C(Cc2ccc(-c3ccc(C)cc3)cc2)OC(=O)CCCCC)sc14 (centres unmarked) [Example Compound 18] | 
9 | 33.3 | easily dissolved | CCCCCOC(=O)OC(Cc1ccccc1)c1cc2sc3cc4c(cc3c2s1)sc1cc(C(Cc2ccccc2)OC(=O)OCCCCC)sc14 (centres unmarked) [Example Compound 11] | 
10 | 21.1 | easily dissolved | CCCCCCc1ccc(CC(OC(=O)C(C)=O)c2cc3sc4cc5c(cc4c3s2)sc2cc(C(Cc3ccc(CCCCCC)cc3)OC(=O)C(C)=O)sc25)cc1 (centres unmarked) [Example Compound 16] | 
11 | 13.9 | easily dissolved | COC(Cc1ccccc1)c1cc2sc3cc4c(cc3c2s1)sc1cc(C(Cc2ccccc2)OC)sc14 (centres unmarked) [Example Compound 12] | 
12 | 32.6 |  | O=C(CC(F)(F)F)OC(Cc1ccccc1)c1cc2sc3cc4c(cc3c2s1)sc1cc(C(Cc2ccccc2)OC(=O)CC(F)(F)F)sc14 (centres unmarked) [Example Compound 3] | 
13 | 26.6 | easily dissolved | O=C(CCl)OC(Cc1ccccc1)c1cc2sc3cc4c(cc3c2s1)sc1cc(C(Cc2ccccc2)OC(=O)CCl)sc14 (centres unmarked) [Example Compound 14] | 
14 | 4.0 |  | Cc1ccc(-c2ccc(CC(O)c3cc4sc5cc6c(cc5c4s3)sc3cc(C(O)Cc4ccc(-c5ccc(C)cc5)cc4)sc36)cc2)cc1 (centres unmarked) [Example Compound 17] | solubility in solvent ([1]; solvent such as THF or toluene): easily dissolved
15 | 17.9 |  | CC(=O)OC(Cc1ccc(C)cc1)c1cc2sc3cc4c(cc3c2s1)sc1cc(C(Cc2ccc(C)cc2)OC(C)=O)sc14 (centres unmarked) [Example Compound 5] | 
16 | 25.7 | easily dissolved | CC(=O)CC(=O)OC(Cc1ccccc1)c1cc2sc3cc4c(cc3c2s1)sc1cc(C(Cc2ccccc2)OC(=O)CC(C)=O)sc14 (centres unmarked) [Example Compound 24] | 
17 | 31.4 | easily dissolved | CCCCCC(=O)OC(Cc1ccccc1)c1cc2sc3cc4c(cc3c2s1)sc1cc(C(Cc2ccccc2)OC(=O)CCCCC)sc14 (centres unmarked) [Example Compound 2] | 
18 | 4.0 |  | CCCCCCc1ccc(CC(O)c2cc3sc4cc5c(cc4c3s2)sc2cc(C(O)Cc3ccc(CCCCCC)cc3)sc25)cc1 (centres unmarked) [Example Compound 7] | 
